Usually IC50 stands for the concentration that gives 50% inhibition.

The experiment has as its target T1, ABCC1 (Homo sapiens, UniProt P33527).
T1 construct: wild-type ABCC1 (pcDNA3-ABCC1) transiently expressed in HEK293T cells
Briefly: Calcein-AM efflux, two-colour flow cytometry in ABCC1-transfected HEK293T cells. The experiment is classed as cell-based.

T1 sequence (P33527 whole entry): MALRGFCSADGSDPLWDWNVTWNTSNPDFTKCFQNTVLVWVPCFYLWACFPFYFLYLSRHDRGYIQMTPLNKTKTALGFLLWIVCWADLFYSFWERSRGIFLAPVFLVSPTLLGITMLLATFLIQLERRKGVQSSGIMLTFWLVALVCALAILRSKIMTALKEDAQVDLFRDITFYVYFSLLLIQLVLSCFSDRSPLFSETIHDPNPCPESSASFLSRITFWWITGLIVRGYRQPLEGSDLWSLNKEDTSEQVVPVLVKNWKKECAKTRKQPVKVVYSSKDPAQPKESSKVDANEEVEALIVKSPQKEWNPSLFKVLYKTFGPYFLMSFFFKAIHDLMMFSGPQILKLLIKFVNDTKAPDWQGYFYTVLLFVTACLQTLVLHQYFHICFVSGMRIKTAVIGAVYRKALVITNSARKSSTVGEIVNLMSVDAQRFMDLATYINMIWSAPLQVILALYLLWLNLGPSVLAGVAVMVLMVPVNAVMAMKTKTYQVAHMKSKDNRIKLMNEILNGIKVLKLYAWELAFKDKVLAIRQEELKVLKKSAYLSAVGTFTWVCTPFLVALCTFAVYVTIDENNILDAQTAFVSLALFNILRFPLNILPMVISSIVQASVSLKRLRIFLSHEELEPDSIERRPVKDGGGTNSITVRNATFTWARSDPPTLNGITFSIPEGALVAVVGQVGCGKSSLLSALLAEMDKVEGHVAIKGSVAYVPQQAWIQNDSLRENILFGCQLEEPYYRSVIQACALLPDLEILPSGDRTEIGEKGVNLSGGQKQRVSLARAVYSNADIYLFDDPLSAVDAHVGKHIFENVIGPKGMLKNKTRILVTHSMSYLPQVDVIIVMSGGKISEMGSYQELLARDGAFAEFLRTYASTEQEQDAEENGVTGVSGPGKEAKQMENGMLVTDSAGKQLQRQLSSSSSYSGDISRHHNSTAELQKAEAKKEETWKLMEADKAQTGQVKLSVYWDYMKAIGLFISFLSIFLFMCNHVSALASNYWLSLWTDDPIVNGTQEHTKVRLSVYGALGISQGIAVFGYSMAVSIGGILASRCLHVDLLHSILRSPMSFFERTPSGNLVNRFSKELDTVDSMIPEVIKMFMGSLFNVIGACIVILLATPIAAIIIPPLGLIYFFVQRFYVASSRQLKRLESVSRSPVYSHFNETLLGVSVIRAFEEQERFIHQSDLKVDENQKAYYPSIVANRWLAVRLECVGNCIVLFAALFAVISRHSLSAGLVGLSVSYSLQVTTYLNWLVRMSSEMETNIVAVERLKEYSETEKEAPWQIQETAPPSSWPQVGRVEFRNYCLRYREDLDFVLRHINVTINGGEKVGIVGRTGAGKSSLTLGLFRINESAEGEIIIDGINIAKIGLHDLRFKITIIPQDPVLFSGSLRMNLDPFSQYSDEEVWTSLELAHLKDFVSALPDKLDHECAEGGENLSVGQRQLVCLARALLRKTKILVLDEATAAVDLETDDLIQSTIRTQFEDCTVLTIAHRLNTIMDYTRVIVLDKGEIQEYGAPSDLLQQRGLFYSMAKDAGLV

As for `CC1=C(CC(=O)O)c2cc(F)ccc2/C1=C\c1ccc([S+](C)[O-])cc1` (stereo not shown) [Sulindac], the IC50 is 106 µM.

Source of the values: publication PMC7465469, “Inhibition of the Lysophosphatidylinositol Transporter ABCC1 Reduces Prostate Cancer Cell Growth and Sensitizes to Chemotherapy” (Cancers, 2020).
